Results from publication PMC6917776, “Discovery of a chemical probe for PRDM9” (Nature Communications, 2019).
Like-named read-outs stand apart in the source and are kept apart here.

Experiments:
Type in all cases: biochemical
SETD7 = biological target: T1, SETD7 (Homo sapiens, UniProt Q8WTS6); assay: Methyltransferase selectivity assay (SPA)
T1 construct: purchased Structural Genomics Consortium (SGC Toronto) in-house methyltransferase panel
T1 sequence (Q8WTS6 1-366): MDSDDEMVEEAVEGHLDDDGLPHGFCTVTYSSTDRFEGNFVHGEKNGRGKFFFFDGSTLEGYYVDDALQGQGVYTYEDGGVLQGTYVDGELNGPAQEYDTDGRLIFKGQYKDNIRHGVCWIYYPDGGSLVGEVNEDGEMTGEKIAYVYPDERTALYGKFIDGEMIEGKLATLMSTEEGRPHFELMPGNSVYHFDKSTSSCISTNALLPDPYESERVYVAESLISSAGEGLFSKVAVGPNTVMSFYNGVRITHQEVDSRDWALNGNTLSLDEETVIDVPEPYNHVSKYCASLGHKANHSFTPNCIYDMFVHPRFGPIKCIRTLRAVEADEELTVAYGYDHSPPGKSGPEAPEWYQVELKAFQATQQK
Method: (§1) Selectivity against methyltransferases were determined as described previously. Details of the assays are described in the supplementary methods.
(§2) Methyltransferase selectivity assay1
(§3) The effect of chemical probes and negative controls on the methyltransferase activities of protein, DNA and RNA methyltransferases was tested by radiometric assays using 3H-SAM. For proteins such as MLL1 trimeric, MLL3 pentameric, EZH1 (PRC2) pentameric, and EZH2 (PRC2) trimeric complexes, as well as G9a, GLP, SUV39H1, SUV39H2, SUV420H1, SUV420H2, SETD2, SETD8, SETDB1, SETD7, PRMT1, PRMT3, PRMT4, PRMT5/ MEP50 complex, PRMT6, PRMT7, PRMT8, PRMT9, PRDM9, SMYD2, SMYD3, DNMT1, and BCDIN3D the incorporation of a tritium-labeled methyl group into biotinylated substrate was monitored using scintillation proximity assay (SPA). Briefly, a 10 µL reaction containing 3H-SAM and substrate at concentrations close to the apparent Km values for each enzyme (balanced conditions) was prepared. The reactions were quenched with 10 µL of 7.5 M guanidine hydrochloride; 180 µL of 20 mM Tris buffer (pH 8.0) were added, and the mixture was transferred to a 96-well FlashPlate and incubated for 1 h. The counts per minute (CPM) was measured on a TopCount plate reader. The CPM in the absence of compound or enzyme was defined as 100% activity and background (0%), respectively, for each dataset. […]

SUV420H1 = biological target: T2, SUV420H1 (Homo sapiens, UniProt Q4FZB7); assay: Methyltransferase selectivity assay (SPA)
T2 construct: purchased Structural Genomics Consortium (SGC Toronto) in-house methyltransferase panel
T2 sequence (Q4FZB7 whole entry): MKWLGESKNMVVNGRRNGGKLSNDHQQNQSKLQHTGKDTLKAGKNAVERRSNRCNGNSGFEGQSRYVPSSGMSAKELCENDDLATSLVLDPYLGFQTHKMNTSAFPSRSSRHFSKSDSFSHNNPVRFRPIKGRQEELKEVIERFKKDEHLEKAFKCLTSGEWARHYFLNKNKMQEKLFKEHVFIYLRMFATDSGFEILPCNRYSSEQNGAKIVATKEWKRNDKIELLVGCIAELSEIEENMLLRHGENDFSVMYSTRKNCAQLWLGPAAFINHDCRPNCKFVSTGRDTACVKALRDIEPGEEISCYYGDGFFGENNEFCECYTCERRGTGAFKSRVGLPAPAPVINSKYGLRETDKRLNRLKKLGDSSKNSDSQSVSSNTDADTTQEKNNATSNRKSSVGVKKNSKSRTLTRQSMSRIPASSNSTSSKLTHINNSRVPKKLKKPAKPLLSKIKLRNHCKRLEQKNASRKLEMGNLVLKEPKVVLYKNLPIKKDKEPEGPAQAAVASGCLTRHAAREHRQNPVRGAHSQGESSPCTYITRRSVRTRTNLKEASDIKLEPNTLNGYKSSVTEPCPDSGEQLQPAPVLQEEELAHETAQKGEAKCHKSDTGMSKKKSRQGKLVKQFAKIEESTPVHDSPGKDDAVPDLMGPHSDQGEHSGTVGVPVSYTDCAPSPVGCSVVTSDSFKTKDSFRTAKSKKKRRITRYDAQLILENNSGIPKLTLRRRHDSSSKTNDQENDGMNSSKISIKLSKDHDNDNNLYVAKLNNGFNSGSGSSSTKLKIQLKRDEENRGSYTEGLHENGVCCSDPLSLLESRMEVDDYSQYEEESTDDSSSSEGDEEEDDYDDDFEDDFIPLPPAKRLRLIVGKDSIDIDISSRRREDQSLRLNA
Method: as §1, §2, §3

DNMT1 = biological target: T3, DNMT1 (Homo sapiens, UniProt P26358); assay: Methyltransferase selectivity assay (SPA)
T3 construct: purchased Structural Genomics Consortium (SGC Toronto) in-house methyltransferase panel
T3 sequence (P26358 whole entry): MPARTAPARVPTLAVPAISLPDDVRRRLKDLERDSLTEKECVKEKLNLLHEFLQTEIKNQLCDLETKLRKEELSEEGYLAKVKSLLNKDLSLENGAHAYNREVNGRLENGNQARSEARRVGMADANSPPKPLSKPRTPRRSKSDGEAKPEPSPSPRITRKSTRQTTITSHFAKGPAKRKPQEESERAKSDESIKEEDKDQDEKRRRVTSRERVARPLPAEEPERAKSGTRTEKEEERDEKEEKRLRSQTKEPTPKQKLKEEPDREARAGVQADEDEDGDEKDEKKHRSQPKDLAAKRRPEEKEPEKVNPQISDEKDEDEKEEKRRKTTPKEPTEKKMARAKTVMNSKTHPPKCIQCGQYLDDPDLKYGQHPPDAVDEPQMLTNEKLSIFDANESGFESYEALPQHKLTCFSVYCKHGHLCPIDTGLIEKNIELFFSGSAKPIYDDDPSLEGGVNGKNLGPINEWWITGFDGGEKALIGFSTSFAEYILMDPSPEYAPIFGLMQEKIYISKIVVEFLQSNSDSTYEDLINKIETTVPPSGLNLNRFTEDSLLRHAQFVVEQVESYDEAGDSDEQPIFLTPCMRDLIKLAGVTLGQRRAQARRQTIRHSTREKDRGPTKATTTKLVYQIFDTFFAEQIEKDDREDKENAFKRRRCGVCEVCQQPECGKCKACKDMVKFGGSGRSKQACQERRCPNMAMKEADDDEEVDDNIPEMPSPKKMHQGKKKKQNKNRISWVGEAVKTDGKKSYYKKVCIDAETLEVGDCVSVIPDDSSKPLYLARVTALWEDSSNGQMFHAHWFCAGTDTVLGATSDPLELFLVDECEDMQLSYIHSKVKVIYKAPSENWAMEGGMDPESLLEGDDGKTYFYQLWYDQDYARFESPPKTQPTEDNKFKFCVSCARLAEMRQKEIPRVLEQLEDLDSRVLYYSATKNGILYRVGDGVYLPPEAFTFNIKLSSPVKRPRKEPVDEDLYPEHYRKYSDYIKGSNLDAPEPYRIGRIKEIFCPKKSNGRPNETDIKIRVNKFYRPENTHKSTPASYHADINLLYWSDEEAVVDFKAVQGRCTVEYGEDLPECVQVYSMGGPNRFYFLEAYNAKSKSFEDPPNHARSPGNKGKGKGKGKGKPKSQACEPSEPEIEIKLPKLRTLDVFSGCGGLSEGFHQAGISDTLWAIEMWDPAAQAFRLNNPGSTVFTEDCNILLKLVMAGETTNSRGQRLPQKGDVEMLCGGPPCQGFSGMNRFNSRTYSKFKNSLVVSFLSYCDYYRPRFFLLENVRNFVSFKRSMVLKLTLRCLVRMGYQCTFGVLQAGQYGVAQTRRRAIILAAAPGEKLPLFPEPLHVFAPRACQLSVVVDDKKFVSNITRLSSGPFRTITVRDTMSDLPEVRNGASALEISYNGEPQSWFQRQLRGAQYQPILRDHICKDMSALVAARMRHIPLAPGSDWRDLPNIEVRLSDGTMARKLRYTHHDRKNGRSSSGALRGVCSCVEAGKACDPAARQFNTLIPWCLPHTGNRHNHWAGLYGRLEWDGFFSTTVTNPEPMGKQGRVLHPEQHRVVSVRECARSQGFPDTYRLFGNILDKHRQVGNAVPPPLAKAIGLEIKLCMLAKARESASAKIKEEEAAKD
Method: as §1, §2
as §3, with “dataset. For DNMT1, the double-stranded DNA substrate was prepared by annealing two complementary strands (biotinylated forward strand: B-[…] and reverse strand:” for “dataset.”

DNMT3B/3L = biological target: T4, DNMT3B/3L (Homo sapiens, UniProt Q9UBC3); assay: Methyltransferase selectivity assay (filter-based); conditions: for activity at 1 µM: 1µM compound; for Activity % / activity at 10 µM: 10µM compound; for Activity %: Exp1, Exp2, 10 µM
T4 construct: purchased Structural Genomics Consortium (SGC Toronto) in-house methyltransferase panel
Method: as §1, §2
The effect of chemical probes and negative controls on the methyltransferase activities of protein, DNA and RNA methyltransferases was tested by radiometric assays using 3H-SAM. […]
The counts per minute (CPM) was measured on a TopCount plate reader. The CPM in the absence of compound or enzyme was defined as 100% activity and background (0%), respectively, for each dataset. […]
For proteins which were tested with nucleosome as substrate such as DOT1L, NSD1, NSD2, NSD3, and ASH1L, or unbiotinylated Poly(2′-deoxyinosinic-2′-deoxycytidylic acid) (Cat# 81349-500UG, Sigma Aldrich) such as DNMT3A/3L, and DNMT3B/3L, a filter-based assay was used. In this assay, a trichloroacetic acid (TCA) protein precipitation protocol was employed. A 10 µL reaction mixture was incubated at 23°C for 1 h, followed by addition of 50 µL of 10% TCA. The mixture was transferred to filter plates (Millipore, Billerica, MA, USA) that were centrifuged at 2000 rpm (Allegra X-15R; Beckman Coulter, Brea, CA, USA) for 2 min. Samples were washed twice with 10% TCA and once with ethanol (180 µL), and centrifuged. After drying, 100 µL MicroScint-O (Perkin Elmer) was added to each well and the plates were centrifuged to remove the liquid. A 70 µL volume of MicroScint-O was added and the CPM was measured with a TopCount plate reader.

[1] = 1µM compound, Exp1, Exp2, read-out: Activity %
[2] = 10µM compound, Exp1, Exp2, 10 µM
[3] = 10µM compound, Exp1, Exp2, read-out: Activity %
[4] = Exp1, Exp2, read-out: Activity %

COc1cc(OC)cc(-c2noc(N3CCN(C)C4(CCN(c5ccnc(C)c5)CC4)C3)n2)c1 [MRK-740]
Activity % (SETD7; 1µM compound, Exp1, Exp2, 1 µM): 92% | activity at 1 µM (SETD7; [1]): 93% | Activity % (SETD7; [2]): 87% | activity at 10 µM (SETD7; [3]): 90% | Activity % (SUV420H1; 1µM compound, Exp1, Exp2, 1 µM): 102% | activity at 1 µM (SUV420H1; [1]): 101% | Activity % (SUV420H1; [2]): 103% | activity at 10 µM (SUV420H1; [3]): 86% | Activity % (DNMT1; 1µM compound, Exp1, Exp2, 1 µM): 95% | activity at 1 µM (DNMT1; [1]): 98% | Activity % (DNMT1; [2]): 101% | activity at 10 µM (DNMT1; [3]): 99% | activity at 1 µM (DNMT3B/3L; [4]): 100% | Activity % (DNMT3B/3L): 90% | activity at 10 µM (DNMT3B/3L; [4]): 82%

COc1cc(OC)cc(-c2noc(N3CCN(C)C4(CCN(c5ccccc5)CC4)C3)n2)c1 [MRK-740 -NC]
activity at 1 µM (SETD7; 1µM compound, Exp1, Exp2): 96% | Activity % (SETD7; 1µM compound, Exp1, Exp2, 1 µM): 95% | activity at 10 µM (SETD7; 10µM compound, Exp1, Exp2): 94% | Activity % (SETD7; [2]): 88% | activity at 1 µM (SUV420H1; 1µM compound, Exp1, Exp2): 103% | Activity % (SUV420H1; 1µM compound, Exp1, Exp2, 1 µM): 105% | activity at 10 µM (SUV420H1; 10µM compound, Exp1, Exp2): 99% | Activity % (SUV420H1; [2]): 95% | activity at 1 µM (DNMT1; 1µM compound, Exp1, Exp2): 105% | activity at 10 µM (DNMT1; 10µM compound, Exp1, Exp2): 102% | Activity % (DNMT1; [2]): 98% | activity at 1 µM (DNMT3B/3L; Exp1, Exp2): 101% | activity at 10 µM (DNMT3B/3L; Exp1, Exp2): 99% | Activity % (DNMT3B/3L): 97%
